According to ChEMBL document CHEMBL5360534, “Synthetic α-glucosidase inhibitors as promising anti-diabetic agents: Recent developments and future challenges” (Eur J Med Chem, 2023):
pIC50: −log10 of the molar value.

Target: T1, Alpha-glucosidase (Saccharomyces cerevisiae S288c, UniProt P53341+P38158+P07265)
Assay: Inhibition of Saccharomyces cerevisiae alpha-glucosidase using p-nitrophenyl-alpha-D-glucopyranoside as substrate preincubated for 5 mins followed by alpha-glucosidase addition and measured after 15 mins by UV-visible spectrophotometric analysis
Format: protein assay

| SMILES | IC50 |
| --- | --- |
| O=C(NNS(=O)(=O)c1ccc(Br)cc1)c1cc2cc(F)ccc2[nH]1 | 4.7 µM |
| O=C(NNS(=O)(=O)c1ccccc1F)c1cc2cc(F)ccc2[nH]1 | 3.2 µM |
| N#Cc1ccc(S(=O)(=O)NNC(=O)c2cc3cc(F)ccc3[nH]2)cc1 | 6.2 µM |
| O=C(NNS(=O)(=O)c1cccc(Cl)c1)c1cc2cc(F)ccc2[nH]1 | 7.4 µM |
| O=C(c1ccccc1)c1ccc2nc(-c3ccc(O)cc3)[nH]c2c1 | 11.02 µM |
| O=C(NNS(=O)(=O)c1cccc(F)c1)c1cc2cc(F)ccc2[nH]1 | 3.2 µM |

Target: T1, Alpha-glucosidase
Assay: Inhibition of Saccharomyces cerevisiae alpha-glucosidase using pNPG as substrate preincubated for 10 mins followed by substrate addition and measured after 20 mins by spectrophotometric analysis
Format: protein assay

| SMILES | IC50 |
| --- | --- |
| O=C1Cc2ccccc2C(O)C1C(c1ccc(OCc2cn(Cc3ccccc3Cl)nn2)cc1)c1c(O)c2ccccc2oc1=O (stereo not drawn) | 13 µM |
| Cc1ccc(C(c2c(N)c3ccccc3oc2=O)c2c(N)c3ccccc3oc2=O)cc1 | 20 µM |
| O=C(COc1ccc(-c2nc(-c3ccccc3)c(-c3ccccc3)[nH]2)cc1)Nc1cccc(Br)c1 | 90 µM |
| O=C(CSC(=S)Nc1cccc([N+](=O)[O-])c1)c1cc2ccccc2oc1=O | 85 µM |
| Cc1ccccc1Cn1cc(COc2ccc(C(c3c(O)c4ccccc4oc3=O)C3C(=O)Cc4ccccc4C3O)cc2)nn1 (stereo not drawn) | 16.4 µM |

Second part, the compound after the results:

| IC50 | SMILES |
| --- | --- |
| 295 µM | COc1ccc(C2=NOC(c3ccccc3)N2c2ccc(OC)cc2)cc1 (stereo not drawn) |
| 256 µM | Fc1ccc(C2=NOC(c3ccccc3)N2c2ccc(F)cc2)cc1 (stereo not drawn) |

Species: Homo sapiens
Assay: Potency index, ratio of acarbose IC50 to test compound IC50 for inhibition of alpha-glucosidase (unknown origin)

| SMILES | Ratio IC50 |
| --- | --- |
| CCOC(=O)CN1C(=O)/C(=N\NC(=O)c2ccc(Cl)cc2)c2ccccc21 | 2 |
| CCOC(=O)CN1C(=O)/C(=N\NC(=O)c2ccccc2Cl)c2ccccc21 | 2 |
| O=[N+]([O-])c1ccccc1/C(CSc1nnc2c(n1)[nH]c1ccccc12)=N\c1nnc(-c2cccc(O)c2)s1 | 15 |
| Fc1ccc(-c2cn3c(Cc4n[nH]c(=S)n4-c4cccc5ccccc45)csc3n2)cc1 | 47 |

Target: T1, Alpha-glucosidase
Assay: Inhibition of Saccharomyces cerevisiae alpha-glucosidase
Format: protein assay

| SMILES | IC50 |
| --- | --- |
| O=C(N/N=C\c1ccccc1OCCCN1C(=O)c2ccccc2C1=O)c1cc2ccccc2oc1=O | 85.2 µM |
| Cc1cc2nc(NC(=O)CN3C(=O)S/C(=C\c4ccc(Cl)cc4)C3=O)sc2cc1C | 29.91 µM |
| O=C(COc1ccc2ccc(=O)oc2c1)N/N=C\c1cc([N+](=O)[O-])ccc1OCCCN1C(=O)c2ccccc2C1=O | 94.2 µM |
| Clc1ccc(/C=N/Nc2nnc(-c3ccccc3)c(-c3ccccc3)n2)cc1 | 13.09 µM |

Target: T1, Alpha-glucosidase
Assay: Competitive inhibition of Saccharomyces cerevisiae alpha-glucosidase using pNPG as substrate assessed as inhibition constant preincubated for 15 mins followed by substrate addition and measured after 20 mins by spectrophotometric analysis
Format: protein assay

| SMILES | Ki |
| --- | --- |
| Cc1ccc(C(c2c(N)c3ccccc3oc2=O)c2c(N)c3ccccc3oc2=O)cc1 | 22.4 µM |
| Cc1ccc(-n2cc(/C=N/NC(=O)Nc3ccccc3)c(-c3ccc([N+](=O)[O-])cc3)n2)cc1 | 87 µM |
| O=C(Cn1c(-c2ccc(Cl)cc2)nc2ccccc2c1=O)N/N=C/c1cn(-c2ccccc2)nc1-c1ccc(Br)cc1 | 56 µM |
| O=C(COc1ccc(-c2nc(-c3ccccc3)c(-c3ccccc3)[nH]2)cc1)Nc1cccc(Br)c1 | 86.3 µM |
| Cc1ccc(-c2nc3c(C(=O)Nc4ccccc4)c(Nc4ccccc4)nn3c(-c3ccc(Br)cc3)c2N)cc1 | 12 µM |

Target: not listed separately
Assay: Inhibition of alpha-glucosidase (unknown origin) using p-nitrophenyl-alpha-D-glucopyranoside as substrate preincubated for 5 mins followed by substrate addition and measured after 5 mins by spectrophotometric analysis
Parameters: species or system Homo sapiens

| SMILES | pIC50 |
| --- | --- |
| O=S(=O)(NCCc1c[nH]c2ccccc12)c1cc(F)ccc1Cl | 5.80 |
| COc1ccc(/C(CSc2nc3ccccc3[nH]2)=N/N=C/c2ccc(OC)cc2O)cc1 | 5.66 |

Further lines, results first:

| pIC50 | SMILES |
| --- | --- |
| 5.57 | Nc1nnc(-c2ccc(O)cc2)s1 |
| 5.64 | Oc1ccc(/C=N/c2nnc(-c3ccc(Cl)cc3)s2)cc1 |

Target: not listed separately
Assay: Inhibition of Saccharomyces cerevisiae alpha-glucosidase type I using p-nitrophenyl-alpha-D-glucopyranoside as substrate preincubated for 10 mins followed by substrate addition and measured after 30 mins by spectrophotometric analysis

| SMILES | pIC50 |
| --- | --- |
| CS(=O)(=O)n1c(=O)c2ccccc2n2ncnc12 | 4.08 |
| C/C=C/n1c(=O)c2ccccc2n2ncnc12 | 4.34 |

More lines, now with the values ahead:

| pIC50 | SMILES |
| --- | --- |
| 4.14 | CSn1c(=O)c2ccccc2n2ncnc12 |
| 4.54 | CCn1c(=O)c2ccccc2n2ncnc12 |
| 4.90 | O=c1c2ccccc2n2ncnc2n1OCc1ccccc1 |

Target: not listed separately
Assay: Inhibition of alpha-glucosidase (unknown origin)
Parameters: species or system Homo sapiens

| SMILES | pIC50 |
| --- | --- |
| CCOP(=O)(OCC)C(Nc1ccc(C(F)(F)F)cc1I)c1cc(OC)c(O)c(OC)c1 (stereo not drawn) | 4.02 |
| OC[C@H]1NC[C@H](O)[C@@H](O)[C@@H]1O [DUVOGLUSTAT] | 3.37 |
| O=C(CC(c1cc(Cl)ccc1Cl)c1c[nH]c2ccccc12)c1ccccc1 (stereo not drawn) | 5.37 |
| CCOC(=O)CN1C(=O)/C(=N\NC(=O)c2ccc(Cl)cc2)c2ccccc21 | 4.84 |
| CCOC(=O)c1c(-c2ccc(/C=C3/SC(=S)NC3=O)cc2)c2ccccc2n1Cc1ccc(Cl)cc1 | 6.29 |
| COc1cc(OC)c(Br)c(-c2nc3ccc(Br)cc3[nH]2)c1 | 5.09 |
| CCOC(=O)C1=C(C)NC2=C(C(=O)CC(C)(C)C2)C1c1cc(OC)c(OC)cc1Br (stereo not drawn) | 5.64 |
| CCOC(=O)c1c(-c2ccc(/C=C3/SC(=S)NC3=O)cc2)c2ccccc2n1Cc1ccccc1 | 6.04 |
| COc1cccc(/C=C/c2nc(-c3ccccc3)c3cc(Cl)ccc3n2)c1OS(=O)(=O)c1ccc([N+](=O)[O-])cc1 | 4.55 |
| CCOC(=O)c1c(-c2ccc(/C=C3/SC(=O)NC3=O)cc2)c2ccccc2n1Cc1ccc(Cl)cc1 | 5.44 |
| O=C(CSc1nc2ccccc2c(=O)n1-c1cccc(Br)c1)c1ccc([N+](=O)[O-])cc1 | 4.07 |
| COc1ccc(-n2c(SCC(=O)N/N=C/c3ccc(Cl)cc3)nc3ccccc3c2=O)cc1 | 3.21 |
| O=[N+]([O-])c1ccc(S(=O)(=O)Oc2ccc(/C=C/c3nc4ccccc4nc3O)cc2)cc1 | 4.49 |
| CCOC(=O)CN1C(=O)/C(=N\NC(=O)c2ccccc2Cl)c2ccccc21 | 4.88 |
| OCCN1C[C@H](O)[C@@H](O)[C@H](O)[C@H]1CO [MIGLITOL] | 6.41 |
| CC(C)Cc1ccc(C(C)c2nnc(SC/C(=N\c3ccc(Cl)c(Cl)c3)c3ccccc3)o2)cc1 (stereo not drawn) | 5.52 |
| Cc1ccoc1-c1cccc(/C=N/NC(=O)c2ccc(-c3cc(=O)c4cc(O)ccc4o3)cc2)c1 | 5.99 |
| Cc1ccc(-c2cc(C(F)(F)F)nn2-c2ccc(S(=O)(=O)NC(=O)c3ccc(C)c([N+](=O)[O-])c3)cc2)cc1 | 4.03 |
| CCOC(=O)c1c(-c2ccc(/C=C3/SC(=O)NC3=O)cc2)c2ccccc2n1Cc1ccccc1 | 5.28 |
| CCn1cc(C(=O)OCc2ccccc2Br)c(=O)c2cc(F)c(N3CCN(Cc4ccccc4Br)CC3)nc21 | 4.34 |
| COc1ccc(-c2coc3cc(OCC(=O)c4ccc(Cl)cc4)ccc3c2=O)cc1 | 5.20 |
| O=C1C(=O)N(Cc2cn(CN3C(=O)S/C(=C\c4ccco4)C3=O)nn2)c2ccccc21 | 4.61 |
| Fc1ccc(-c2cn3c(Cc4n[nH]c(=S)n4-c4cccc5ccccc45)csc3n2)cc1 | 5.34 |
| OC[C@H]1CC2C(N=NN2c2ccccc2)[C@@H](O)C1O (stereo partly drawn) | 4.13 |

Results, then the compound that gave them:

| pIC50 | SMILES |
| --- | --- |
| 5.83 | COc1ccc(/C=N/n2c(COc3ccccc3)nnc2SCCO)cc1 |
| 6.10 | Nc1nnc(-c2cccc3cccc(O)c23)o1 |
| 5.96 | O=C(NNS(=O)(=O)c1ccccc1Cl)c1ccc(-c2nnc(-c3ccc([N+](=O)[O-])cc3)o2)cc1 |
| 6.30 | Oc1c(Cl)cc(Cl)cc1/C=N/c1nc(-c2ccc(-c3ccccc3)cc2)cs1 |
| 5.83 | CN(C)c1ccc(-c2ccc(/C=N/n3c(COc4ccccc4)nnc3SCCO)cc2)cc1 |
| 5.20 | Nc1ccc2c(-c3nc4ccc(Br)c(O)c4s3)cc(=O)oc2c1 |
| 5.83 | OCCSc1nnc(COc2ccccc2)n1/N=C/c1ccc(O)cc1 |
| 4.22 | O=C(N/N=C/c1ccc(Cl)cc1)c1cc(-c2ccccc2)[nH]n1 |
| 3.93 | Cc1cccc(-n2c(-c3ccc(Cl)cc3)cc(C(=O)Nc3ccncc3)c2C)c1 |
| 5.60 | O=[N+]([O-])c1ccccc1/C(CSc1nnc2c(n1)[nH]c1ccccc12)=N\c1nnc(-c2cccc(O)c2)s1 |
| 5.14 | Cc1cc([N+](=O)[O-])ccc1-c1cnc(CC(C)C)s1 |

Target: T1, Alpha-glucosidase
Assay: Inhibition of Saccharomyces cerevisiae alpha-glucosidase using p-nitrophenyl-alpha-D-glucopyranoside as substrate preincubated for 15 mins followed by substrate addition and measured after 30 mins by spectrophotometric analysis
Format: protein assay

| SMILES | IC50 |
| --- | --- |
| CC(=O)CC(c1ccc(Br)cc1)C(C(=O)Nc1ccccn1)C(=O)Nc1ccccn1 (stereo not drawn) | 12.8 µM |
| O=C1Nc2ccccc2C1(c1cn(Cc2ccccc2F)c2ccccc12)c1cn(Cc2ccccc2F)c2ccccc12 | 5.98 µM |

Second part, the compound after the results:

| IC50 | SMILES |
| --- | --- |
| 2.85 µM | COc1ccc(-c2csc(NC(=O)CSc3nnc(-c4ccc(Br)cc4)c(-c4ccc(Br)cc4)n3)n2)cc1 |
| 19.6 µM | Cc1ccc(-c2cc(-c3ccc(Br)cc3)nc(SCc3ccc(Cl)cc3)n2)cc1 |
| 20.7 µM | CC(C)(C)c1ccc(Cn2cc(CCS3=Nc4cc(Cl)ccc4C3)nn2)cc1 (stereo not drawn) |

Target: T1, Alpha-glucosidase
Assay: Inhibition of Saccharomyces cerevisiae alpha-glucosidase using p-nitrophenyl glucopyranoside as substrate preincubated for 10 mins followed by substrate addition and measured after 20 mins by spectrophotometric analysis
Format: protein assay

| SMILES | IC50 |
| --- | --- |
| CCOC(=O)c1c(-c2ccccc2)nn2c1C=C(c1ccc(O)c(OC)c1)/C2=N/C1CCCCC1 | 95 µM |
| COc1ccc(CCn2c(SCc3cn(Cc4ccc(Br)cc4)nn3)nc3ccccc3c2=O)cc1OC | 192.3 µM |
| Cc1ccc(-n2cc(/C=N/NC(=O)Nc3ccccc3)c(-c3ccc([N+](=O)[O-])cc3)n2)cc1 | 65.1 µM |
| O=C(Cn1c(-c2ccc(Cl)cc2)nc2ccccc2c1=O)N/N=C/c1cn(-c2ccccc2)nc1-c1ccc(Br)cc1 | 60.5 µM |
| COc1cccc2cc(-c3nnc(SCc4cn(CC(=O)NCc5ccc(F)cc5)nn4)o3)oc12 | 40.7 µM |

Results, then the compound that gave them:

| IC50 | SMILES |
| --- | --- |
| 16.4 µM | Nc1c(-c2ccccc2)nc2nc3cc(Cl)c(Cl)cc3n2c1-c1ccccc1 |
| 15.2 µM | Cc1ccc(-c2nc3c(C(=O)Nc4ccccc4)c(Nc4ccccc4)nn3c(-c3ccc(Br)cc3)c2N)cc1 |
| 45.3 µM | O=C(Cn1cc(COc2ccc(-c3nc4ccccc4c(=O)[nH]3)cc2)nn1)Nc1ccccc1 |
